Read-outs that look alike come from different tables or passages of the source.
Tested on: UV-induced skin thickening
Conditions: for other skin disorders induced by UV-irradiation (low grade of erythema or flaking, white raised area on skin, wrinkling): compared to vehicle control
Procedure: Albino hairless SKHI-hr mice (36/sex/group) were treated for 40 weeks with UVR and brimonidine gel or vehicle according to the design in Table 11. […] Topical treatments were performed approximately one hour before UVR on Monday, Wednesday and Friday of each week and approximately one hour after UVR Tuesday and Thursday of each week.
N/N=Total number of observations/number of mice with observation

## Brc1c(NC2=NCCN2)ccc2nccnc12 [brimonidine, (5-bromo-quinoxalin-6-yl)-(4,5-dihydro-1H-imidazol-2-yl)-amine]
0.18% (w/w) topical
  UV-induced skin thickness, statistical effect: did not statistically reduce
  incidence of skin thickening compared to the UV control group: observably lower
1% (w/w) topical
  UV-induced skin thickness, statistical effect compared to the UV control group: statistically reduced
  other skin disorders induced by UV-irradiation (low grade of erythema or flaking, white raised area on skin, wrinkling): reduced
2% (w/w) topical
  UV-induced skin thickness, statistical effect compared to the UV control group: statistically reduced
  other skin disorders induced by UV-irradiation (low grade of erythema or flaking, white raised area on skin, wrinkling): reduced
Mice exposed to UV radiation, summary statement
  skin thickening or other skin disorders: significant reduction
Topical application at 0.18%, 1% and 2% (w/w), UVR 600 RBU/week
  UV-induced skin thickening: dose-dependent reduction
